{"source": "patent US11690911B2", "about": "“Combination of ATR kinase inhibitors and PD-1/PD-L1 inhibitors” (Bayer Pharma Aktiengesellschaft, priority 2017, dated 2023)", "key": {"[1]": {"test_system": "murine syngeneic lung carcinoma model KLN205", "conditions": "mouse, in vivo", "method": "(§1) KLN205) or three (CT26 and MC38 study 1) or only one (MC38 study 2) different combination schedules were tested:\n(§2) The oral application volume was 10 ml/kg and the intravenous application volume 5 ml/kg. The time interval between two applications per day was 6-7 h. The tumor size and the body weight were determined three times weekly. Changes in the body weight were a measure of treatment-related toxicity (>10%=critical, stop of treatment until recovery, >20%=toxic, termination). The tumor volume was detected by means of an electronic caliper gauge [0.5×length in mm×(width in mm)^2]. Animals for which the tumor volume exceeded 2000 mm^3 (or for which the mean tumor volume of the group exceeds 2000 mm^3) were euthanized. In vivo anti-tumor efficacy is presented as T/C ratio (Treatment/Control) calculated with tumor volumes at day of control group termination by the formula [(tumor volume of treatment group at day x)−(tumor volume of treatment group at day before first treatment)]/[(tumor volume control group at day x)−(tumor volume of control group at day before first treatment)]. […] Statistical analysis was assessed using SigmaStat software. A one-way analysis of variance was performed and differences to the control were compared by a pair-wise comparison procedure (Dunn's method)."}, "[2]": {"test_system": "murine syngeneic colon carcinoma model CT26", "conditions": "mouse, in vivo, po, 50 mg/kg", "method": "as §1, §2"}, "[3]": {"test_system": "murine syngeneic lymphoma model A20", "conditions": "mouse, in vivo, po, 50 mg/kg", "method": "as §1, §2"}}, "data": [{"smiles": "C[C@@H]1COCCN1c1cc(-c2ccnn2C)c2ccnc(-c3ccn[nH]3)c2n1", "note": "[Compound A, 2-[(3R)-3-methylmorpholin-4-yl]-4-(1-methyl-1H-pyrazol-5-yl)-8-(1H-pyrazol-5-yl)-1,7-naphthyridine]", "values": [{"measurement": "Max. weight loss (%)", "setting": "[1]", "result": "−19 (d9) %"}, {"measurement": "body weight loss (in words)", "setting": "[1]", "result": "critical body weight loss"}, {"measurement": "Max. weight loss (%)", "setting": "[2]", "result": "−1", "unit": "%"}, {"measurement": "Max. weight loss (%)", "setting": "[3]", "result": "−2", "unit": "%"}]}]}
